Legend:
C57Bl/6J mice = assay: Long-term NR supplementation of chow or high-fat diet fed mice; assay type: in vivo
Experimental: Animal Experiments. Male PARP-1^+/+ and PARP-1^−/− mice on a pure C57Bl/6J background (Menissier-de Murcia et al., 1997) were used. Mice were housed separately, had ad libitum access to water and standard rodent chow (10 kcal % of fat, Safe, Augy, France) or to a high calorie, high fat diet (60 kcal % of fat, Research. Diets, New Brunswick, N.J., USA), and were kept under a 12 h dark-light cycle. In other animal experiments, 8 weeks-old male C57Bl/6J mice were purchased from Charles River and powder chow (D12450B) and high fat (D12492) diets were from Research Diets Inc (New Brunswick, N.J., USA). 80 ml of water per kg of powder CD were used to make food pellets. 40 ml of water per kg of powder HFD were used to make food pellets. For NR, NMN and NA supplemented diets, the appropriate amount of these compounds was added to the water used to create the pellets, taking into account the differences in the daily intake of each diet. Mice were housed separately, had ad libitum access to water and food and were kept under a 12 h dark-light cycle. Mice were fed with homemade pellets from 10 weeks of age. To make the pellets, the powder food was mixed with water (vehicle) or with NR. All animal experiments were carried out according to local national and EU ethical guidelines. To monitor body weight, mice were weighed and the food consumption was measured each week on the same day. In case of PJ34 treatment, mice received each 12 h (at 7:00 and 19:00) 10 mg/kg PJ34 by intraperitoneal injection for 5 continuous days. In all studies animals were killed (at 14:00) either after CO2 inhalation or cervical dislocation after 6 h of fasting (starting at 8:00), and tissues were collected and processed as specified below. Oral glucose tolerance test, intraperitoneal insulin tolerance test, free fatty acid (FFA) and triglycerides were determined as described (Lagouge et al., 2006). Plasma insulin and was determined in heparinized plasma samples using specific ELISA kits (Mercodia). Blood samples were collected in heparinized tubes and plasma was isolated after centrifugation. Plasma parameters were measured using a Cobas c111 (Roche Diagnostics). Thermoadaptation was performed as described (Lagouge et al., 2006). We measured O2 consumption, CO2 production, and spontaneous locomotor activity in an open circuit indirect calorimetry system (Sabre systems, Las Vegas, Nev., USA) over 24-48 has described (Dali-Youcef et al., 2007; Lagouge et al., 2006; Watanabe et al., 2006). […] The respiratory quotient was the ratio of CO2 production over O2 consumption. During actimetry, beamline crossings were summarized each 15 minutes. […] Euglycemic-hyperinsulinemic clamps were performed in PARP-1^−/− and ^+/+ male mice (n=4 mice per genotype; age=4 months) exactly as previously described (Feige et al, 2008).
Instruments, total body fat was measured by echoMRI as described (Lagouge et al., 2006; Watanabe et al., 2006). Endurance test was performed as described in (Canto et al., 2009). Intraperitoneal glucose and insulin tolerance tests (IPGTT and IPITT, respectively) were performed as previously described (Feige et al, 2008). The animals were killed after 6 h of fasting by CO2 asphyxiation and tissues were collected. Total body fat content was then examined at autopsy, by weighing the subcutaneous, gonadal, mesenterial, retroperitoneal and BAT associated fat depots. Liver triglyceride was determined after Folch extraction using a commercial triglyceride kit (Roche). Pancreas and plasma insulin content was determined from acidic extracts using a commercial ELISA kit (Mercodia) (Champy et al., 2004).
Histology and Microscopy. Haematoxylin-eosin (HE), Oil Red-O and succinate-dehydrogenase (SDH) stainings were performed on […] tissue sections as described (Lagouge et al., 2006; Picard et al., 2002). Transmission electron microscopy (TEM) investigation was performed on glutaraldehyde-fixed, osmium tetroxyde stained ultrafine sections (Watanabe et al., 2006). […]

C2C12 myotubes = assay: Oxygen consumption in cultured C2C12 myotubes; assay type: cell-based
Experimental: Oxygen Consumption in Cultured Cells. Cellular O2 consumption was measured using a Seahorse bioscience XF24 analyzer with […] biological replicates per condition, in 24 well plates at 37° C., exactly as described (Canto et al., 2009). C2C12 were infected with an adenovirus encoding for FLAG-HA-PGC-1 and either scramble or SIRT1 shRNAs 48 h previous to O2 consumption measurements. Then myotubes were treated with 1 μM PJ34 for 48 h. In order to measure the contribution of fatty acid oxidation to global O2 consumption, total cellular O2 consumption was measured for 6 successive 2 min measurements at 5 min intervals. Then, 50 μl of etomoxir (1 M; Calbiochem, San Diego, Calif., USA) were added and, after […], 6 successive 2 min measurements were performed at 5 min intervals. The remaining O2 consumption was attributed to non-lipid substrates, while the difference with the initial O2 consumption values was considered due to fatty acid oxidation.

NC(=O)c1ccc[n+]([C@@H]2O[C@H](CO)[C@@H](O)[C@H]2O)c1 [NR, nicotinamide riboside]
fasting insulin levels (C57Bl/6J mice; 16 weeks, 6 hr fast): much lower
thermogenic capacity (body temperature during cold exposure) (C57Bl/6J mice; CD and HFD): enhanced thermogenic capacity
O2 consumption rates on CD (C57Bl/6J mice; CD, NR 400 mg/kg/day): marked tendency to display higher O2 consumption rates
RER changes between feeding and fasting periods (C57Bl/6J mice; CD, NR 400 mg/kg/day): higher amplitude of the changes in RER
body weight on chow diet (C57Bl/6J mice; CD, NR 400 mg/kg/day): no effect
HDL-cholesterol levels (C57Bl/6J mice; HFD): unaffected
HFD-induced increase in LDL cholesterol (C57Bl/6J mice; HFD): partially prevented the increase
cristae of mitochondria in BAT (electron microscopy) (C57Bl/6J mice; HFD): more abundant cristae
size of mitochondria in BAT (electron microscopy) (C57Bl/6J mice; HFD): not being significantly larger
glucose tolerance (intraperitoneal glucose tolerance test) (C57Bl/6J mice; HFD, 10 weeks): slight, albeit not significant, improvement in glucose tolerance
insulin secretion during glucose tolerance test (C57Bl/6J mice; HFD, 10 weeks): robust reduction in insulin secretion
endurance performance on HFD (treadmill) (C57Bl/6J mice; HFD, 12 weeks): significantly accentuated
HFD-induced increase in total cholesterol (C57Bl/6J mice; HFD, 16 weeks, 6 hr fast): partially prevented the increase
O2 consumption rates on HFD (C57Bl/6J mice; HFD, NR 400 mg/kg/day): clearly significant
fat mass (Echo-MRI) (C57Bl/6J mice; HFD, NR 400 mg/kg/day, 8 weeks): reduced fat mass
HFD-induced body weight gain (C57Bl/6J mice; HFD, NR 400 mg/kg/day, 12 weeks): significantly attenuated
activity pattern (C57Bl/6J mice; NR 400 mg/kg/day): did not affect the activity pattern
liver triglycerides, less than vehicle-fed (C57Bl/6J mice; NR 400 mg/kg/day): 40%
weight of the epididymal depot (C57Bl/6J mice; NR 400 mg/kg/day): significant lower weight of the epididymal depot
food intake (C57Bl/6J mice; NR 400 mg/kg/day, especially on HFD): tendency to eat more
endurance performance (C57Bl/6J mice; NR-fed vs vehicle fed): clear tendency to display a better endurance performance
SDH staining of gastrocnemius muscle (C57Bl/6J mice; mouse, in vivo): more intense SDH staining

CN(C)CC(=O)Nc1ccc2[nH]c(=O)c3ccccc3c2c1 [PJ34]
O2 consumption rates (C2C12 myotubes; 1 μM PJ34, 48 h): enhanced oxidative metabolism
O2 consumption with SIRT1 knock-down (C2C12 myotubes; SIRT1 shRNA): largely blunted
substrate contribution to the increase in O2 consumption (C2C12 myotubes; etomoxir): combination of enhanced oxidation of lipid and non-lipid substrates

— patent publication US10709724B2, “Methods of treating mitochondrial dysfunction” (Ecole Polytechnique Federale de Lausanne (EPFL), priority 2011, dated 2020)
